Experimental data reported in ChEMBL document CHEMBL1125575, “2-[(2-pyridylmethyl)sulfinyl]-1H-thieno[3,4-d]imidazoles. A novel class of gastric H+/K(+)-ATPase inhibitors” (J Med Chem, 1992).

Experiments:
animal or person = settings: Canis lupus familiaris, Stomach, iv, read-out: Inhibition
Rattus norvegicus [1] = species: Rattus norvegicus; test: animal or person; settings: Stomach, iv, read-out: Inhibition
Canis familiaris [2] = species: Canis familiaris; test: animal or person; settings: Canis lupus familiaris, iv
Oryctolagus cuniculus [3] = species: Oryctolagus cuniculus; test: cells; format: functional, organism-based, Stomach
Description: In vitro inhibition of 14C amino-pyrine uptake was determined in isolated rabbit gastric glands after dbcAMP stimulation

[4] = Chemical stability at pH 2.0; format: physicochemical; settings: buffer
Canis familiaris [5] = test: Antisecretory activity calculated in heidenhain-pouch dog after iv administration of the drug, values in parenthesis indicates 95% confidence limits; format: functional; settings: Canis lupus familiaris
[6] = Chemical stability at pH 5.0; format: physicochemical; settings: buffer
Canis familiaris [7] = species: Canis familiaris; test: animal or person; settings: Canis lupus familiaris, Stomach, intraduodenal, read-out: Inhibition
[8] = Chemical stability at pH 7.0; format: physicochemical; settings: buffer
[9] = biological target: Potassium-transporting ATPase alpha chain 1 (Sus scrofa, UniProt P19156)
Description: In vitro inhibitory concentration against H+/K+ ATPase from pig stomach by probit analysis

Rattus norvegicus [10] = test: In vivo inhibition of gastric acid secretion was calculated in stomach-lumen perfused rat after iv administration of drug at a dose of 5 mg/kg; format: functional
Canis familiaris [11] = test: In vivo inhibition of gastric acid secretion was calculated in heidenhain-pouch dog after iv administration of the drug at a dose of 0.5 mg/kg; format: functional; settings: Canis lupus familiaris, Stomach
[12] = biological target: Potassium-transporting ATPase alpha chain 1 (Sus scrofa) (UniProt P19156); test: Inhibition of H+/K+ ATPase from pig stomach; format: tissue-based; settings: concentration not given here
Oryctolagus cuniculus [13] = species: Oryctolagus cuniculus; test: In vitro inhibition of 14C amino pyrine uptake was determined in isolated rabbit gastric glands after dbcAMP stimulation; format: functional; settings: Stomach
Canis familiaris [14] = test: Antisecretory activity calculated in heidenhain-pouch dog after id administration of the drug, value in parenthesis indicates 95% confidence limits; format: functional; settings: Canis lupus familiaris
Canis familiaris [15] = test: In vivo inhibition of gastric acid secretion was calculated in heidenhain-pouch dog after iv administration of the drug at a dose of 0.3 mg/kg; format: functional; settings: Canis lupus familiaris, Stomach
Canis familiaris [16] = test: Antisecretory activity calculated in heidenhain-pouch dog after id administration of the drug; format: functional; settings: Canis lupus familiaris

Sequence of Potassium-transporting ATPase alpha chain 1 (P19156 whole entry, the tested form may be a part): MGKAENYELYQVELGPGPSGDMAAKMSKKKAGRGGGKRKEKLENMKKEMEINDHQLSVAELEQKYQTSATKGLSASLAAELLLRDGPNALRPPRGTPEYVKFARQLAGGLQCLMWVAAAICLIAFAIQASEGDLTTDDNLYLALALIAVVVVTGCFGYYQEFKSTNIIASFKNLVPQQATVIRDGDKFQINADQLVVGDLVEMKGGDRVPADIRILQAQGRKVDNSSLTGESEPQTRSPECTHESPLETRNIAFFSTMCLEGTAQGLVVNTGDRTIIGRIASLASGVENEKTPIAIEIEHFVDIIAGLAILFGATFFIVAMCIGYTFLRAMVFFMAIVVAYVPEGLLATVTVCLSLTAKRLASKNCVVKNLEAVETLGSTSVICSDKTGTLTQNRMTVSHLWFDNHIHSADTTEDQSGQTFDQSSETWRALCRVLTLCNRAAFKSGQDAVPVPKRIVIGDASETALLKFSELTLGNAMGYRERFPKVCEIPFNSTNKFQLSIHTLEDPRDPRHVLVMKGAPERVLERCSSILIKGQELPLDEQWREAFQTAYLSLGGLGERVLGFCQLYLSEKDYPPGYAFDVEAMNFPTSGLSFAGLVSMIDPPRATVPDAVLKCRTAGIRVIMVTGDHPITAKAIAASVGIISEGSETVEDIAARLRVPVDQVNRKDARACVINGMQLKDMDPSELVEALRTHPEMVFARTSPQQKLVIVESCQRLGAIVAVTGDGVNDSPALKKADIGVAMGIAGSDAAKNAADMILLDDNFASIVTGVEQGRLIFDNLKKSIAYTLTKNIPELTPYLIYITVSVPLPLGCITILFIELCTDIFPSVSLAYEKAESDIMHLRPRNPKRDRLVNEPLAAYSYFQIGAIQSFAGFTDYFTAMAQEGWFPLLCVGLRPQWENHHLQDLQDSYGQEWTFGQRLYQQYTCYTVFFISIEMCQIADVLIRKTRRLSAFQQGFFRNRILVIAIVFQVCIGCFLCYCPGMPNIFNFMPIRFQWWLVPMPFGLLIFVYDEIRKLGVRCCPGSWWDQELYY
Sequence of Potassium-transporting ATPase alpha chain 1 (Sus scrofa) (P19156 whole entry): as the sequence (P19156 whole entry, the tested form may be a part) above
Description for physchem: pKa value of the compound

Row | pKa (physchem) | IC50 (Oryctolagus cuniculus [3]; Stomach) [nM] | SMILES | inhibition in vivo at 0.3 mg/kg (animal or person) [%] | inhibition in vivo at 0.5 mg/kg (Rattus norvegicus [1]) [%] | inhibition in vivo at 1 mg/kg (Canis familiaris [7]) [%] | other results
1 | 3.26 | 9000 | Cc1ccc(C[S+]([O-])c2nc3cscc3[nH]2)nc1 (configuration not stated) | 72 | 78 | – | ED50 (Canis familiaris [2]): 0.11 mg/kg
2 | 3.73 | 1300 | [O-][S+](Cc1cc(OCC(F)(F)C(F)(F)C(F)(F)F)ccn1)c1nc2cscc2[nH]1 (configuration not stated) [SAVIPRAZOLE] | 76 | 72 | 93 | half-life [4]: 0.05 h; ED50 (Canis familiaris [5]): 0.22 mg/kg; half-life [6]: 1.4 h; half-life [8]: 8 h
3 | – | – | COc1c(OCC(F)(F)C(F)(F)C(F)(F)F)ccnc1C[S+]([O-])c1nc2cscc2[nH]1 (configuration not stated) | – | 70 | 66 | IC50 (Oryctolagus cuniculus [3]): 1100 nM; IC50 [9]: 7000 nM
4 | 3.52 | 2500 | COc1c(OCC(F)(F)F)ccnc1C[S+]([O-])c1nc2cscc2[nH]1 (configuration not stated) | 85 | 64 | – | ED50 (Canis familiaris [2]): 0.08 mg/kg; IC50 [9]: 4000 nM
5 | 3.92 | 3000 | CCOc1ccnc(C[S+]([O-])c2nc3cscc3[nH]2)c1 (configuration not stated) | – | – | – | –
6 | 3.55 | 1000 | COc1ccnc(C[S+]([O-])c2nc3cscc3[nH]2)c1Cl (configuration not stated) | 82 | 71 | 36 | ED50 (Canis familiaris [2]): 0.1 mg/kg
7 | – | 1000 | COc1c(OCC(F)(F)C(F)(F)C(F)(F)C(F)F)ccnc1C[S+]([O-])c1nc2cscc2[nH]1 (configuration not stated) | – | 64 | 63 | IC50 [9]: 12000 nM
8 | – | – | Cc1ccnc(C[S+]([O-])c2nc3cscc3[nH]2)c1 (configuration not stated) | – | – | – | inhibition in vivo at 5 mg/kg (Rattus norvegicus [10]): -67%; inhibition in vivo at 0.5 mg/kg (Canis familiaris [11]): 72%
9 | – | 81000 | COc1c(Br)cnc(C[S+]([O-])c2nc3cscc3[nH]2)c1C (configuration not stated) | – | 37 | – | inhibition [12]: -5%
10 | 3.52 | 2000 | COc1ccnc(C[S+]([O-])c2nc3cscc3[nH]2)c1Br (configuration not stated) | 73 | 71 | -11 | –
11 | – | – | COc1cccnc1C[S+]([O-])c1nc2cscc2[nH]1 (configuration not stated) | – | 59 | – | IC50 (Oryctolagus cuniculus [13]): 290000 nM
12 | – | 1000 | COc1c(OCC(F)(F)C(F)(F)F)ccnc1C[S+]([O-])c1nc2cscc2[nH]1 (configuration not stated) | 74 | 57 | 95 | half-life [4]: 0.183 h; ED50 (Canis familiaris [14]): 0.16 mg/kg; ED50 (Canis familiaris [2]): 0.13 mg/kg; half-life [6]: 7.8 h; half-life [8]: 23 h
13 | 3.74 | 600 | [O-][S+](Cc1cc(OCc2ccc(C(F)(F)F)cc2)ccn1)c1nc2cscc2[nH]1 (configuration not stated) | – | 80 | 94 | –
14 | 4.16 | 19000 | COc1ccnc(C[S+]([O-])c2nc3cscc3[nH]2)c1 (configuration not stated) | 84 | 82 | – | –
15 | – | – | COc1c(OCC(F)(F)C(F)F)ccnc1C[S+]([O-])c1nc2cscc2[nH]1 (configuration not stated) | 58 | 79 | 47 | IC50 (Oryctolagus cuniculus [3]): 600 nM; IC50 [9]: 3000 nM
16 | – | – | [O-][S+](Cc1cc(OCc2ccc(F)cc2)ccn1)c1nc2cscc2[nH]1 (configuration not stated) | – | 85 | – | inhibition in vivo at 0.3 mg/kg (Canis familiaris [15]): 80%; IC50 (Oryctolagus cuniculus [3]): 500 nM; IC50 [9]: 500 nM
17 | 3.5 | 195000 | [O-][S+](Cc1cc(OC(C(F)(F)F)C(F)(F)F)ccn1)c1nc2cscc2[nH]1 (configuration not stated) | – | 39 | – | –
18 | – | 3700 | Cc1sc(C)c2[nH]c([S+]([O-])Cc3cc(OCC(F)(F)F)ccn3)nc12 (configuration not stated) | 54 | – | – | IC50 [9]: 2000 nM
19 | 3.44 | 31000 | COc1cc(C[S+]([O-])c2nc3cscc3[nH]2)ncc1Cl (configuration not stated) | 38 | 58 | 55 | –
20 | 3.83 | 3000 | [O-][S+](Cc1cc(OCC(F)(F)F)ccn1)c1nc2cscc2[nH]1 (configuration not stated) | 62 | 96 | 73 | –
21 | – | 3000 | [O-][S+](Cc1cc(OCC(F)(F)C(F)(F)C(F)(F)C(F)F)ccn1)c1nc2cscc2[nH]1 (configuration not stated) | – | – | – | IC50 [9]: 2000 nM
22 | – | 230000 | COc1c(Cl)cnc(C[S+]([O-])c2nc3cscc3[nH]2)c1C (configuration not stated) | – | 43 | 24 | inhibition [12]: -5%
23 | – | 500 | Cc1c(OCC(F)(F)C(F)(F)F)ccnc1C[S+]([O-])c1nc2cscc2[nH]1 (configuration not stated) | 64 | 72 | 45 | –
24 | – | – | COc1ccc2[nH]c([S+]([O-])Cc3ncc(C)c(OC)c3C)nc2c1 (configuration not stated) [OMEPRAZOLE] | – | – | – | half-life [4]: 12 h; ED50 (Canis familiaris [16]): 0.25 mg/kg; ED50 (Canis familiaris [2]): 0.1 mg/kg; half-life [6]: 2.26 h; half-life [8]: 17 h
25 | – | 21000 | Cc1c(OCC(F)(F)F)ccnc1C[S+]([O-])c1nc2cscc2[nH]1 (configuration not stated) | – | 56 | – | inhibition in vivo at 0.3 mg/kg (Canis familiaris [15]): 57%
26 | – | 4000 | [O-][S+](Cc1cc(Oc2ccc(F)cc2)ccn1)c1nc2cscc2[nH]1 (configuration not stated) | 85 | 84 | 97 | –
